Laboratory results from publication PMC7410094 (ACS chemical biology, 2020).

Assays:
MelBSt = MelBSt (Salmonella enterica, UniProt P30878); test: Trp to dansyl FRET; type: binding; conditions: DDM or MTG-E13 micelles; active site
MelBEC = MelBEC (Escherichia coli, UniProt P02921); test: Trp to dansyl FRET; type: binding; conditions: MTG-E13 micelles (response lost in DDM); active site
β2AR = β2AR (Homo sapiens, UniProt P07550); test: radioligand binding assay; conditions: labelled compound; antagonist; DDM or MTG micelles at CMC+0.2 wt%
β2AR, sequence (P07550 whole entry): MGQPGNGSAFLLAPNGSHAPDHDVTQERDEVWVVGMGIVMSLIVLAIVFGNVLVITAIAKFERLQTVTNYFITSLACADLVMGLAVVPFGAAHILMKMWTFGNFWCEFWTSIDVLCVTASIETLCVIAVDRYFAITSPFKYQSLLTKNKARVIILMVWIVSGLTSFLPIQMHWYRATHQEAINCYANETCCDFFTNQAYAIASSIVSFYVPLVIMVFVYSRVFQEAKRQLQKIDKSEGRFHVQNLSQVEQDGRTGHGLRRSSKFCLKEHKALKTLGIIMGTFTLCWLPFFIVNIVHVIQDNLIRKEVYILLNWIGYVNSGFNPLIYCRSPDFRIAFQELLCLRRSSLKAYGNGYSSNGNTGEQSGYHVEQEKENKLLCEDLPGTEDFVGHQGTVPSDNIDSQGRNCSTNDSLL

MelBEC, sequence (P02921 2-473): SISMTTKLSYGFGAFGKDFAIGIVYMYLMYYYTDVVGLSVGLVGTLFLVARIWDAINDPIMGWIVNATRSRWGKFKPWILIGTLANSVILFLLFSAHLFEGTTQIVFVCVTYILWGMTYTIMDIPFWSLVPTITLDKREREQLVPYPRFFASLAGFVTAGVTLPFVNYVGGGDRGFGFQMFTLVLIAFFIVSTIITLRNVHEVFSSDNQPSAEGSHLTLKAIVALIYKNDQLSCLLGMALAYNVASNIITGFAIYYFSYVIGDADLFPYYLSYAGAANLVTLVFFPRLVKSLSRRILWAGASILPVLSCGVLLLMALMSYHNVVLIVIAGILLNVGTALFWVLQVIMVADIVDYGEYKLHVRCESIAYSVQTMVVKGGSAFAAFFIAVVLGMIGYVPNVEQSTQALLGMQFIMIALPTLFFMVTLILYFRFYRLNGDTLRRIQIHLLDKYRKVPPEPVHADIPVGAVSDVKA
MelBSt, sequence (P30878 whole entry): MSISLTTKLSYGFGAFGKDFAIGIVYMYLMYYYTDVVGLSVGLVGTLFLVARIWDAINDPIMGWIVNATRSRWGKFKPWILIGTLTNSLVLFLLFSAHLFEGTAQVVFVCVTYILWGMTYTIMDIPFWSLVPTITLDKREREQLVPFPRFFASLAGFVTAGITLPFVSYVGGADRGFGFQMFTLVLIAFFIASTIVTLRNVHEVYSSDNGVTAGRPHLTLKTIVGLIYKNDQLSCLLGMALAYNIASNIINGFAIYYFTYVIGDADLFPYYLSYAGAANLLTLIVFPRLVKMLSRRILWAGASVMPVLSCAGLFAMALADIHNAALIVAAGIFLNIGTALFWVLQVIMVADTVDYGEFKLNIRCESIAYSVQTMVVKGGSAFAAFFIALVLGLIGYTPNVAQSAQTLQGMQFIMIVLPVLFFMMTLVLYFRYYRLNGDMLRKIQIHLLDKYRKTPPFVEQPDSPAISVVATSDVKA

| SMILES | Trp to dansyl FRET (MelBSt) | Trp to dansyl FRET (MelBEC) | radioligand binding assay (β2AR) |
| --- | --- | --- | --- |
| CN(C)c1cccc2c(S(=O)(=O)NCCS[C@@H]3O[C@H](CO)[C@H](O)[C@H](O)[C@H]3O)cccc12 [D^2G, 2’-(N-dansyl)aminoalkyl-1-thio-β-D-galactopyranoside] | DDM-solubilized MelBSt showed initial increase and subsequent decrease in the fluorescence signal | MTG-E13, was effective at preserving the functionality of this less stable MelB homologue |  |
| CCCc1ccccc1OCC(O)CNC(C)C (stereo not drawn) [[^3H]-dihydroalprenolol] |  |  | the MTGs led to [^3H]-DHA-binding capability of the receptor comparable to DDM |
